PMC8348310, “Antioxidants Isolated from Elaeagnus umbellata (Thunb.) Protect against Bacterial Infections and Diabetes in Streptozotocin-Induced Diabetic Rat Model” (Molecules, 2021)
In brackets after ≈: the same amount, converted by molar mass. Several values for one entry are separate records, joined by “and”; a condition that tells them apart may be missing. Equal entries are not always repeated.

How the values were obtained:
Staphylococcus aureus = assay: Broth dilution MIC determination; assay type: cell-based; settings: 37 °C, 24 h, read-out: Minimum Inhibitory Concentrations
Protocol: Stock solutions of morin, phloroglucinol, and 1-hexyl benzene were prepared in dimethylsulphoxide (DMSO). […] Sterile centrifuge tubes were arranged in sets of rows for each bacterial inoculum to cover the different concentration of isolated compounds in triplicate. […] A sterility control tube and a growth control tube were also incubated (for each strain). The tubes were incubated at 37 °C for 24 h. After incubation, 40 μL of a 0.4 mg/mL solution of para iodonitrotetrazolium (INT) chloride was added to each tube as an indicator of microbial growth. […] The evaluation for the inhibition of microbial growth was based on the color change of INT to pink, while no color change indicates the absence of growth. The MIC is the lowest concentration of the compounds at which there is no visible growth in the tubes. The concentration that inhibited bacterial growth completely (the first clear tube) was taken as the MIC value. Experiments were performed in triplicate and mean values are presented. […] A negative control experiment was conducted using only DMSO.

Salmonella typhi = assay: Agar well diffusion, zone of inhibition; assay type: cell-based; settings: 24 h; for zone of inhibition at 100 µg/mL: Salmonella enterica, TYPHI; for Zone of Inhibition: Salmonella typhi, 100 µg/mL, 37 °C
[1] = DPPH free radical scavenging assay; assay type: biochemical; settings: 125 µg/mL
Bacillus cereus = assay: Broth dilution MIC determination; assay type: cell-based; settings: 37 °C, 24 h, read-out: Minimum Inhibitory Concentrations
Protocol: (§1) Antibacterial potential of isolated compound was investigated against both Gram-positive and Gram-negative bacterial strains; Escherichia coli, Bacillus cereus, Salmonella typhi, Klebsiella pneumonia, Pseudomonas aeruginosa and Proteus mirabilis. Bacterial strains were provided by the Department of Pharmacy, University of Malakand, Khyber Pakhtunkhwa, Pakistan, and were kept at 4 °C in agar slants in freeze-dried condition until further use.
(§2) Both Gram-positive and Gram-negative bacterial strains Escherichia coli, Bacillus cereus, Salmonella typhi, Klebsiella pneumonia, Pseudomonas aeruginosa and Proteus mirabilis organism viable count per mL in the stock suspension was determined using surface viable counting technique. About 10^8–10^9 colony-forming units (CFU) per mL were used as inoculum in subsequent experiments. A fresh stock suspension was used each time.
(§3) Minimum inhibitory concentrations (MICs) of morin, phloroglucinol, and 1-hexyl benzene were determined using broth dilution method, following the Clinical and Laboratory Standards Institute (CLSI) guidelines. Stock solutions of morin, phloroglucinol, and 1-hexyl benzene were prepared in dimethylsulphoxide (DMSO). The serial dilutions from the stock solution were made ranging from 500 to 3.90 μg/mL using Mueller–Hinton broth. Sterile centrifuge tubes were arranged in sets of rows for each bacterial inoculum to cover the different concentration of isolated compounds in triplicate. The standard bacterial stock suspension 10^8–10^9 CFU/mL, in 100 μL were inoculated into each tube. A sterility control tube and a growth control tube were also incubated (for each strain). The tubes were incubated at 37 °C for 24 h. After incubation, 40 μL of a 0.4 mg/mL solution of para iodonitrotetrazolium (INT) chloride was added to each tube as an indicator of microbial growth. […] The evaluation for the inhibition of microbial growth was based on the color change of INT to pink, while no color change indicates the absence of growth. The MIC is the lowest concentration of the compounds at which there is no visible growth in the tubes. The concentration that inhibited bacterial growth completely (the first clear tube) was taken as the MIC value. Experiments were performed in triplicate and mean values are presented.
(§4) In order to, determine the sensitivity of the bacterial strains, positive control experiments were conducted, taking ampicillin at a starting concentration of 0.10 mg/mL in sterile water while the final concentrations for these experiments ranged from 25.00 to 0.19 μg/mL. A negative control experiment was conducted using only DMSO.

Klebsiella pneumonia = assay: Broth dilution MIC determination; assay type: cell-based; settings: Klebsiella pneumoniae, 37 °C, 24 h, read-out: Minimum Inhibitory Concentrations
Protocol: as §1, §2, §3, §4

Escherichia coli = assay: Broth dilution MIC determination; assay type: cell-based; settings: 37 °C, 24 h, read-out: Minimum Inhibitory Concentrations
Protocol: as §1, §2, §3, §4

Proteus mirabilis = assay: Broth dilution MIC determination; assay type: cell-based; settings: 37 °C, 24 h, read-out: Minimum Inhibitory Concentrations
Protocol: as §1, §2, §3, §4

Pseudomonas aeruginosa = assay: Broth dilution MIC determination; assay type: cell-based; settings: 37 °C, 24 h, read-out: Minimum Inhibitory Concentrations
Protocol: as §1, §2, §3, §4

[2] = ABTS free radical scavenging assay; assay type: biochemical; settings: for ABTS IC50: linear regression of % scavenging vs concentration
Protocol: ABTS (2,2′-azinobis-3-ethylbenzothiazoline-6-sulfonic acid) free radicals inhibition potential were determined according to the reported assay. ABTS solution was prepared in methanol (100 mL). In total, 300 µL of compound (morin, phloroglucinol, and 1-hexyl benzene) was mixed thoroughly with 3.0 mL ABTS solution and incubated for six minutes. Finally, the absorbance was measured through UV spectrophotometer using ascorbic acid as positive control. Percent ABTS free radicals scavenging potential was calculated using the equation No. 1.
All the in vitro and in vivo experiments were analyzed in three replicates and determined as mean ± SEM. Student’s t-test and one way ANOVA followed by Dunnett’s post hoc multiple comparison test was used. p ≤ 0.05 were considered as significant. Linear regression analysis was used to calculate the IC50 value for % DPPH, ABTS, α-amylase, and α-glucosidase inhibition against the different concentrations of the test samples by means of Excel program 2007.

Row | SMILES | MIC (Staphylococcus aureus) | zone of inhibition at 100 µg/mL (Salmonella typhi) | Zone of Inhibition (Salmonella typhi) | % DPPH Scavenging Mean ± SEM [1] | MIC (Bacillus cereus) | MIC (Klebsiella pneumonia) | MIC (Escherichia coli) | MIC (Proteus mirabilis) | MIC (Pseudomonas aeruginosa) | % ABTS Scavenging Mean ± SEM ([2]; 31.05 µg/mL) | % ABTS Scavenging Mean ± SEM ([2]; 62.5 µg/mL) | % ABTS Scavenging Mean ± SEM ([2]; 125 µg/mL) | % ABTS Scavenging Mean ± SEM ([2]; 250 µg/mL) | % ABTS Scavenging Mean ± SEM ([2]; 500 µg/mL) | % ABTS Scavenging Mean ± SEM ([2]; 1000 µg/mL) | ABTS IC50 [2]
1 | CCCCCCc1ccccc1 [1-Hexyl benzene, 1-hexylbenzene] | 205 ± 2.1 µg/mL (≈ 1260 µM) | 7.4 ± 1.2 mm | 7.4 ± 1.2 mm | 40 ± 1.1 % | 135 ± 1.5 µg/mL (≈ 832 µM) | 178 ± 2.2 µg/mL (≈ 1100 µM) | 95 ± 2.1 µg/mL (≈ 585 µM) | 250 ± 1.2 µg/mL (≈ 1540 µM) | 200 ± 1.5 µg/mL (≈ 1230 µM) | 19 ± 1.4 % | 26 ± 0.5 % | 31 ± 1.0 % | 39 ± 1.5 % | 47 ± 2.2 % | 55 ± 1.1 % | 129 µg/mL
2 | O=c1c(O)c(-c2ccc(O)cc2O)oc2cc(O)cc(O)c12 [Morin, 2-(2,4-Dihydroxyphenyl)-3,5,7-trihydroxychromen-4-one] | 68 ± 1.3 µg/mL (≈ 225 µM) | 16 ± 1.2 mm | 16 ± 1.2 mm | 68 ± 1.2 % | 21 ± 1.2 µg/mL (≈ 69.5 µM) | 30 ± 1.4 µg/mL (≈ 99.3 µM) | 25 ± 1.1 µg/mL (≈ 82.7 µM) | 55 ± 1.4 µg/mL (≈ 182 µM) | 44 ± 1.5 µg/mL (≈ 146 µM) | 45 ± 0.5 % | 57 ± 1.4 % | 64 ± 1.2 % | 75 ± 0.5 ^ns % | 80 ± 1.0 ^ns % | 88 ± 1.0% and 88 ± 1.0 ^ns % | 40 µg/mL
3 | Oc1cc(O)cc(O)c1 [Phloroglucinol, Benzene-1,3,5-triol] | 192 ± 2.3 µg/mL (≈ 1520 µM) | 12 ± 1.1 mm | 12 ± 1.1 mm | 40 ± 0.5 % | 105 ± 1.6 µg/mL (≈ 833 µM) | 166 ± 1.5 µg/mL (≈ 1320 µM) | 80 ± 1.4 µg/mL (≈ 634 µM) | 205 ± 1.5 µg/mL (≈ 1630 µM) | 180 ± 2.1 µg/mL (≈ 1430 µM) | 25 ± 1.0 % | 33 ± 0.5 % | 39 ± 1.2 % | 45 ± 1.0 % | 51 ± 0.5 % | 64 ± 1.1 % | 112 µg/mL
